Measured values taken from patent US20140066620A1, “PYRIMIDINE SUBSTITUTED PURINE DERIVATIVES” (VERASTEM, INC., priority 2007, published 2014).

Experiments:
[1] = target: T1, Recombinant PI3K p110α/p85 (Homo sapiens, UniProt P42336); experiment: PI3K Assay (radiometric lipid kinase assay); format: biochemical; details: p110α/p85, 2 μM ATP, 1 hour at RT; read-out: IC50 (PI3Kα)
T1 construct: made in house
Protocol: Recombinant PI3K p110α/p85 was prepared in-house. Phosphatidylinositol (PtdIns), phosphotidylserine (PtdSer) and all other unspecified chemicals were purchased from Sigma-Aldrich. [γ^33P]ATP and Optiphase scintillant were obtained from Perkin Elmer.
Assays were performed in a final assay volume of 25 μL in 384-well Maxisorp plates (Nunc). […] Maxisorp plates were coated with 20 μL/well of a 1:1 mixture of PtdIns and PtdSer [0.1 mg/mL each dissolved in chloroform:ethanol (3:7)] and left overnight in a fume hood at room temperature (RT) to dry.
The reaction was incubated for 1 hour at RT and terminated with 30 μL/well of 50 mM EDTA solution. The plate was then washed twice with TBS, dried, and added with 30 μL/well of scintillant before it was counted in a MicroBeta Trilux.

Truncated mTOR kinase = target: T2, Truncated mTOR kinase (Homo sapiens, UniProt P42345); experiment: mTOR Assay (radiometric phosphorylation of 4eBP1); format: biochemical; details: 4eBP1 substrate, 10 μM ATP, 1 hour at room temperature
T2 construct: Truncated mTOR kinase and His-tagged 4eBP1 were produced in-house
T2 sequence (P42345 2156-2549 limits assumed): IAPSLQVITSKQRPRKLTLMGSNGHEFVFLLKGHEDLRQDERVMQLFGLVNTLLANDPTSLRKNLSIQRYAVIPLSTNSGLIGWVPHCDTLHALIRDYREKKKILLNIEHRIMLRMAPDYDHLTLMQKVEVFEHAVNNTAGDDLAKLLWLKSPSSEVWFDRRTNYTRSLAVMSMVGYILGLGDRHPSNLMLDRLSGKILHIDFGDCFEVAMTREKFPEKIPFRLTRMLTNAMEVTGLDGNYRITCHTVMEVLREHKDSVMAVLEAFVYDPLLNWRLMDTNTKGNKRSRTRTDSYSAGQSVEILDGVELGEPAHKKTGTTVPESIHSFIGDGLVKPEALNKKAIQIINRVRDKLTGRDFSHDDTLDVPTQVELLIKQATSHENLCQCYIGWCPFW
Protocol: Truncated mTOR kinase and His-tagged 4eBP1 were produced in-house. [γ^33P]-ATP was purchased from Amersham (GE Healthcare). All chemicals, unless otherwise stated, were from Sigma-Aldrich.
Phosphorylation assays were initially performed in a final volume of 20 μL in 384-well polypropylene plate (Greiner). […] The reaction was initiated by adding 10 μL/well of 20 μM ATP solution (final assay concentration 10 μM ATP and 0.4 μCi/well of [γhu 33P]-ATP). After 1 hour incubation at room temperature, the reaction was terminated with 40 μL/well of 20 mM EDTA/1 mM ATP solution.
50 μL/well of the stopped reaction mix was then transferred to 384-well MultiScreenHTS-PH filter plate (Millipore) pre-added with 50 μL/well of 1% phosphoric acid. The plate was washed 4 times with 120 μL/well of 0.5% phosphoric acid via vacuum filtration. Finally, 10 μL/well of Optiphase™ SuperMix liquid scintillation cocktail (Perkin Elmer) was added. After minimum 1 hour of incubation, counting was performed in a Wallac MicroBeta TriLux scintillation counter using coincidence counting mode with crosstalk correction.

PC3 cells = experiment: Cell-based proliferation assay, PC3; details: Homo sapiens, PC-3, 96 h treatment, Celltiter96 Aqueous One Solution
Protocol: Human cancer cell lines PC3 and DU145 (human prostate cancer cell lines), were obtained from ATCC. They were cultured in the media according to the ATCC work instructions. PC3 and DU145 cells were seeded at 1,000 cells per well in 96-well plates, respectively. The plates were incubated at 37° C., 5% CO2, for 24 h. Cells were treated with compounds at various concentrations for 96 h. Cell proliferation was then quantified using Celltiter96 Aqueous One Solution Cell Proliferation Assay from Promega (Madison Wis.). Dose response curves were plotted to determine IC50 values for the compounds using XL-fit (ID Business Solution, Emeryville, Calif.).

human cancer cell lines = details: different human cancer cell lines in vitro and xenograft models in vivo; read-out: IC50 (anti-neoplastic activity); cited from earlier work
[2] = system: human breast cancer cell lines; details: two of eight human breast cancer cell lines, resistant; cited from earlier work

T1 sequence (P42336 whole entry): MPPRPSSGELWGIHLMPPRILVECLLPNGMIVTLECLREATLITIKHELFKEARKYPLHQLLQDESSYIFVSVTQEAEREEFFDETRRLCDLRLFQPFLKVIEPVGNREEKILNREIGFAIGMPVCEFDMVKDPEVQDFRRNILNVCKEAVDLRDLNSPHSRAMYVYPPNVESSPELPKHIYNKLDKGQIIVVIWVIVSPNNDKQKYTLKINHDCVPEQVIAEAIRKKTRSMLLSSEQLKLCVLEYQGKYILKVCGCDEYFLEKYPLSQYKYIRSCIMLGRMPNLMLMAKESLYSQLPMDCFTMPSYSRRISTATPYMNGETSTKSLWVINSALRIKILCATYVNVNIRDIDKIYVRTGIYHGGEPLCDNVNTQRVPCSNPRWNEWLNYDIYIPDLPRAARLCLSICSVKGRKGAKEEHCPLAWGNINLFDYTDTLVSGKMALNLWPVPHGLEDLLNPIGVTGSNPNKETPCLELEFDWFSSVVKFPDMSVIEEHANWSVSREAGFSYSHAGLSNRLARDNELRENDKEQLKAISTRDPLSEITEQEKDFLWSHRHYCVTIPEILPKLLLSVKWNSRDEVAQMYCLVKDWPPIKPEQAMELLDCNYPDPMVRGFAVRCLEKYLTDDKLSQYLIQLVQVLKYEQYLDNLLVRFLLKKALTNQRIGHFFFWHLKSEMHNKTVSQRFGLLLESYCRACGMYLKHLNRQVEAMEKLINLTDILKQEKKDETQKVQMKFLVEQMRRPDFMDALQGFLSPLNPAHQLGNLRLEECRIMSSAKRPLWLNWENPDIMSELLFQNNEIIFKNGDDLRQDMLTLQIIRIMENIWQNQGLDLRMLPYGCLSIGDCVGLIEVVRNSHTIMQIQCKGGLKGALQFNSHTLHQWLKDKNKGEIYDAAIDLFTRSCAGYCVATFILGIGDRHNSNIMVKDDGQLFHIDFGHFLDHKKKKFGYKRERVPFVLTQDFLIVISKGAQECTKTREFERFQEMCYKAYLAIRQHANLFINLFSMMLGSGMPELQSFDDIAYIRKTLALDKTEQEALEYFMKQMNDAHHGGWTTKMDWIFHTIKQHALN
T1 sequence (P27986 whole entry partner): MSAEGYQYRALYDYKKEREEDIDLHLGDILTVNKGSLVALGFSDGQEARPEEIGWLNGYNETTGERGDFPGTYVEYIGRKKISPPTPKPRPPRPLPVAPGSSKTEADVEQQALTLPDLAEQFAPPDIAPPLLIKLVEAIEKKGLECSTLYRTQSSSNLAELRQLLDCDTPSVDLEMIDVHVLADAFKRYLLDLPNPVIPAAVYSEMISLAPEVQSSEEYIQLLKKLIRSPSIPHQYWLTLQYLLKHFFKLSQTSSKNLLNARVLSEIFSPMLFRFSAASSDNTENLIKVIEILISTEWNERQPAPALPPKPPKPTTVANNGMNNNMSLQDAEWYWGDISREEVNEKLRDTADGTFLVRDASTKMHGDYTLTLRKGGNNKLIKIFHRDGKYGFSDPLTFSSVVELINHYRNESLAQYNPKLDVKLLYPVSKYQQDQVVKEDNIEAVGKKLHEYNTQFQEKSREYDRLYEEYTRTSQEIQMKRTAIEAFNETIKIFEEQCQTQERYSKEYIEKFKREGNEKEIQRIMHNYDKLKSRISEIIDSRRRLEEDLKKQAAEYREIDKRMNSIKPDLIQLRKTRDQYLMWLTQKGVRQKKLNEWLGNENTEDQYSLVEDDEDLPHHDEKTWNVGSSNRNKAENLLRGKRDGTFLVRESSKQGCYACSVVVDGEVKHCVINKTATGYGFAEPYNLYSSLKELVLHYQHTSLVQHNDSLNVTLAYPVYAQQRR

CC1CCC(n2cnc3c(-c4cnc(N)nc4)nc(N4CCOCC4)nc32)CC1 (stereo not drawn) [Compound 36]
IC50 [1]: < 1000 nM
IC50 (Truncated mTOR kinase): < 1000 nM

Nc1ncc(-c2nc(N3CCOCC3)nc3c2ncn3C2CCOC2)cn1 (stereo not drawn) [Compound 18]
IC50 (PC3 cells): ≤ 1000 nM
IC50 (Truncated mTOR kinase): < 1000 nM

CCC(C)n1cnc2c(-c3cnc(N)nc3)nc(N3CCOCC3C)nc21 (stereo not drawn) [Compound 35]
IC50 (PC3 cells): ≤ 1000 nM
IC50 (Truncated mTOR kinase): < 1000 nM

Cc1ccc(C(=O)N2CCC(n3cnc4c(-c5cnc(N)nc5)nc(N5CCOCC5)nc43)C2)s1 (stereo not drawn) [Compound 33, {3-[6-(2-Amino-pyrimidin-5-yl)-2-morpholin-4-yl-purin-9-yl]-pyrrolidin-1-yl}-(5-methyl-thiophen-2-yl)-methanone]
IC50 [1]: < 1000 nM
IC50 (Truncated mTOR kinase): < 1000 nM

c1ccc(Cn2cnc3c(-c4cncnc4)nc(N4CCOCC4)nc32)cc1 [Compound 4]
IC50 [1]: < 1000 nM
IC50 (Truncated mTOR kinase): > 5000 nM

Cc1cccc(-n2cnc3c(-c4cnc(N)nc4)nc(N4CCOCC4)nc32)c1 [Compound 27, 5-(2-morpholin-4-yl-9-m-tolyl-9H-purin-6-yl)-pyrimidin-2-yl-amine]
IC50 [1]: < 1000 nM
IC50 (Truncated mTOR kinase): < 1000 nM

CCCC(=O)N1CCC(n2cnc3c(-c4cnc(N)nc4)nc(N4CCOCC4)nc32)CC1 [Compound 21]
IC50 (PC3 cells): ≤ 1000 nM
IC50 [1]: < 1000 nM
IC50 (Truncated mTOR kinase): < 1000 nM

CCC(CC)n1cnc2c(-c3cnc(N)nc3)nc(N3CCOCC3)nc21 [Compound 24]
IC50 [1]: < 1000 nM
IC50 (Truncated mTOR kinase): < 1000 nM

CCC(C)n1cnc2c(-c3cnc(NC)nc3)nc(N3CCOCC3)nc21 (stereo not drawn) [Compound 20]
IC50 [1]: < 1000 nM
IC50 (Truncated mTOR kinase): < 1000 nM

CC[C@@H](C)n1cnc2c(-c3cnc(N)nc3)nc(N3CCOCC3)nc21 [Compound 25]
IC50 (PC3 cells): ≤ 1000 nM

Cc1nc(N)ncc1-c1nc(N2CCOCC2)nc2c1ncn2C(C)C1CC1 (stereo not drawn) [Compound 15]
IC50 [1]: < 1000 nM
IC50 (Truncated mTOR kinase): > 5000 nM

CC(COC(C)(C)C)n1cnc2c(-c3cnc(N)nc3)nc(N3CCOCC3)nc21 (stereo not drawn) [Compound 5]
IC50 [1]: < 1000 nM
IC50 (Truncated mTOR kinase): 1000 to 5000 nM

Nc1ncc(-c2nc(N3CCOCC3)nc3c2ncn3C2CCc3ccccc3C2)cn1 (stereo not drawn) [Compound 30]
IC50 [1]: < 1000 nM
IC50 (Truncated mTOR kinase): < 1000 nM

COCC(C)n1cnc2c(-c3cnc(N)nc3C)nc(N3CCOCC3)nc21 (stereo not drawn) [Compound 16]
IC50 [1]: < 1000 nM
IC50 (Truncated mTOR kinase): > 5000 nM

Nc1ncc(-c2nc(N3CCOCC3)nc3c2ncn3C2Cc3ccccc3C2)cn1 [Compound 31]
IC50 [1]: < 1000 nM
IC50 (Truncated mTOR kinase): < 1000 nM

CC(C)C(C)n1cnc2c(-c3cnc(N)nc3)nc(N3CCOCC3)nc21 (stereo not drawn) [Compound 22]
IC50 (PC3 cells): ≤ 1000 nM
IC50 [1]: < 1000 nM
IC50 (Truncated mTOR kinase): < 1000 nM

Nc1ncc(-c2nc(N3CCOCC3)nc3c2ncn3-c2ccccc2)cn1 [Compound 38]
IC50 [1]: < 1000 nM
IC50 (Truncated mTOR kinase): < 1000 nM

Nc1ncc(-c2nc(N3CCOCC3)nc3[nH]cnc23)cn1 [Compound 34]
IC50 [1]: < 1000 nM
IC50 (Truncated mTOR kinase): 1000 to 5000 nM

Nc1ncc(-c2nc(N3CCOCC3)nc3c2ncn3Cc2c(F)cccc2F)cn1 [Compound 1]
IC50 [1]: < 1000 nM
IC50 (Truncated mTOR kinase): 1000 to 5000 nM

Nc1ncc(-c2nc(N3CCOCC3)nc3c2ncn3[C@H]2CCOC2)cn1 [Compound 18]
IC50 [1]: < 1000 nM

COc1nc(N)ncc1-c1nc(N2CCOCC2)nc2c1ncn2C(C)C1CC1 (stereo not drawn) [Compound 11]
IC50 [1]: < 1000 nM
IC50 (Truncated mTOR kinase): 1000 to 5000 nM

CC(C)(C)Cn1cnc2c(-c3cnc(N)nc3)nc(N3CCOCC3)nc21 [Compound 29]
IC50 (PC3 cells): ≤ 1000 nM
IC50 [1]: < 1000 nM
IC50 (Truncated mTOR kinase): < 1000 nM

Nc1ncc(-c2nc(N3CCOCC3)nc3c2ncn3C2CCN(C(=O)c3ccccc3)C2)cn1 (stereo not drawn) [Compound 32]
IC50 [1]: < 1000 nM
IC50 (Truncated mTOR kinase): < 1000 nM

Nc1ncc(-c2nc(N3CCOCC3)nc3c2ncn3C2CCCC2)cn1 [Compound 7]
IC50 [1]: < 1000 nM
IC50 (Truncated mTOR kinase): < 1000 nM

CCC(C)n1c(Br)nc2c(-c3cnc(N)nc3)nc(N3CCOCC3)nc21 (stereo not drawn) [Compound 42, 5-(8-Bromo-9-sec-butyl-2-morpholin-4-yl-9H-purin-6-yl)-pyrimidin-2-ylamine]
IC50 (PC3 cells): ≤ 1000 nM

COCC(C)n1cnc2c(-c3cnc(N)nc3OC)nc(N3CCOCC3)nc21 (stereo not drawn) [Compound 13]
IC50 [1]: < 1000 nM
IC50 (Truncated mTOR kinase): 1000 to 5000 nM

CCC(C#N)n1cnc2c(-c3cnc(N)nc3)nc(N3CCOCC3)nc21 (stereo not drawn) [Compound 23]
IC50 (PC3 cells): ≤ 1000 nM
IC50 [1]: < 1000 nM
IC50 (Truncated mTOR kinase): < 1000 nM

CC1CCC(n2cnc3c(-c4cnc(N)nc4)nc(N4CCOCC4)nc32)C1 (mixture of isomers) [Compound 37]
IC50 (PC3 cells): ≤ 1000 nM
IC50 [1]: < 1000 nM
IC50 (Truncated mTOR kinase): < 1000 nM

CC(C1CC1)n1cnc2c(-c3cnc(N)nc3)nc(N3CCOCC3)nc21 (stereo not drawn) [Compound 10]
IC50 (PC3 cells): ≤ 1000 nM
IC50 [1]: < 1000 nM
IC50 (Truncated mTOR kinase): < 1000 nM

CCC(C)n1cnc2c(-c3cncnc3)nc(N3CCOCC3)nc21 (stereo not drawn) [Compound 6]
IC50 [1]: < 1000 nM
IC50 (Truncated mTOR kinase): 1000 to 5000 nM

CCC(C)n1cnc2c(-c3cnc(N)nc3OC)nc(N3CCOCC3)nc21 (stereo not drawn) [Compound 8]
IC50 [1]: < 1000 nM
IC50 (Truncated mTOR kinase): < 1000 nM

CCC(C)n1cnc2c(-c3cnc(N)nc3)nc(N3CCOC[C@@H]3C)nc21 (stereo partly drawn) [Compound 35]
IC50 [1]: < 1000 nM

CO[C@H]1C[C@@H]2CC[C@@H](C)[C@@](O)(O2)C(=O)C(=O)N2CCCC[C@H]2C(=O)O[C@H]([C@H](C)C[C@@H]2CC[C@@H](OCCO)[C@H](OC)C2)CC(=O)[C@H](C)/C=C(\C)[C@@H](O)[C@@H](OC)C(=O)[C@H](C)C[C@H](C)/C=C/C=C/C=C/1C [RAD001, 40-O-(2-hydroxyethyl)-rapamycin]
IC50 (human cancer cell lines): 5 to 1800 nM

CO[C@H]1C[C@@H]2CC[C@@H](C)[C@@](O)(O2)C(=O)C(=O)N2CCCC[C@H]2C(=O)O[C@H]([C@H](C)C[C@@H]2CC[C@@H](OC(=O)C(C)(CO)CO)[C@H](OC)C2)CC(=O)[C@H](C)/C=C(\C)[C@@H](O)[C@@H](OC)C(=O)[C@H](C)C[C@H](C)/C=C/C=C/C=C/1C [CCI-779]
IC50 [2]: > 1000 nM

Cc1nc(N)ncc1-c1nc(N2CCOCC2)nc2c1ncn2C(C)c1ccccc1 (stereo not drawn) [Compound 17]
IC50 [1]: < 1000 nM
IC50 (Truncated mTOR kinase): > 5000 nM

CC(c1ccccc1)n1cnc2c(-c3cnc(N)nc3)nc(N3CCOCC3)nc21 (stereo not drawn) [Compound 9]
IC50 [1]: < 1000 nM
IC50 (Truncated mTOR kinase): 1000 to 5000 nM

CC(C)(C)OC(=O)N1CCC(n2cnc3c(-c4cnc(N)nc4)nc(N4CCOCC4)nc32)CC1 [Compound 19]
IC50 (PC3 cells): ≤ 1000 nM
IC50 [1]: < 1000 nM
IC50 (Truncated mTOR kinase): < 1000 nM

CCC(C)n1cnc2c(-c3cnc(N)nc3C)nc(N3CCOCC3)nc21 (stereo not drawn) [Compound 14]
IC50 [1]: < 1000 nM
IC50 (Truncated mTOR kinase): > 5000 nM

CCC(C)n1cnc2c(-c3cnc(N)nc3)nc(N3CCOCC3)nc21 (stereo not drawn) [Compound 26]
IC50 (PC3 cells): ≤ 1000 nM

COCC(C)n1cnc2c(-c3cnc(N)nc3)nc(N3CCOCC3)nc21 (stereo not drawn) [Compound 12]
IC50 [1]: < 1000 nM
IC50 (Truncated mTOR kinase): < 1000 nM

Nc1ncc(-c2nc(N3CCOCC3)nc3c2ncn3C2CCNC2)cn1 (stereo not drawn) [Compound 28]
IC50 (Truncated mTOR kinase): 1000 to 5000 nM
